Earlier results, collected in US20090022799A1, “COMPOSITIONS THAT CONTAIN BETA-GLUCAN TO BE USED FOR THE PREVENTION AND TREATMENT OF DISEASE AND METHODS FOR THEIR USE” (priority 2006, published 2009).
Where a name gives a salt, the structure may show the parent alone.

Tests used:
[1] = forms a suspension in aqueous solution
[2] = β-Glucan particles
[3] = human clinical trials

Beta-(1→3)-d-Glucan [β-Glucan]
solubility in water [1]: insoluble | median particle size [2]: 3.7-4.6 μm | safety and tolerability [3]: safe and well-tolerated

[H]/N=C(\N/C(=N/[H])NCCCCCCNC(=N)NC(=N)Nc1ccc(Cl)cc1)Nc1ccc(Cl)cc1 [Chlorhexidine hydrochloride, chlorhexidine hydrochloride, reference compound]
solubility in water [1]: limited solubility
